Assays:
[1] = molecular target: T1, Ectonucleotide pyrophosphatase/phosphodiesterase family member 3 (Homo sapiens, UniProt O14638); experiment: Inhibition of recombinant human ENPP3 using p-Nph-5'-TMP as substrate by absorbance based analysis
T1 sequence (O14638 whole entry): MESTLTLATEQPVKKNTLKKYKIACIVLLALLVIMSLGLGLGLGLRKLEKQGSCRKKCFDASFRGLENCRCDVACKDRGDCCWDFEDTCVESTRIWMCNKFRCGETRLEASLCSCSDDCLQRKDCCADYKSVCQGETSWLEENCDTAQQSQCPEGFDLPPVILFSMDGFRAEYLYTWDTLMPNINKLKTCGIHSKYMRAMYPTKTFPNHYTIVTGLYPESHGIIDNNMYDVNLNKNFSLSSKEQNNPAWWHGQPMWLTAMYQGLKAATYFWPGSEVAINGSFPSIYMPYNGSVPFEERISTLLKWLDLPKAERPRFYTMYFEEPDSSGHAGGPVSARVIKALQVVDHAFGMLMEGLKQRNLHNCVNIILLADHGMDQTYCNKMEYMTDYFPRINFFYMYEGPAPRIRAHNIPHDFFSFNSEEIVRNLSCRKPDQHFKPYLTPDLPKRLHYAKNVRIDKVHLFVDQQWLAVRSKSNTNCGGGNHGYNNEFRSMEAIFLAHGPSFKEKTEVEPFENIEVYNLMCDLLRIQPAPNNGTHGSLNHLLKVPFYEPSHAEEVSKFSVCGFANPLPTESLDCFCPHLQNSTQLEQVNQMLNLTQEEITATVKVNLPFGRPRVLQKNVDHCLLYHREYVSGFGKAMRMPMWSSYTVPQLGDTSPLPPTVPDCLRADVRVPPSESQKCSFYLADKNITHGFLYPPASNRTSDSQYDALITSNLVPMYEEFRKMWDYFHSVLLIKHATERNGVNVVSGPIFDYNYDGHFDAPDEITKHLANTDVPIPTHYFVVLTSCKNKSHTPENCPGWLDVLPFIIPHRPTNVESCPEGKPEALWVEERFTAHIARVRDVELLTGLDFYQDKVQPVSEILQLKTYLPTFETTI

Autotaxin = Autotaxin (Mus musculus, UniProt Q9R1E6); experiment: Inhibition of N-terminal recombinant mouse ENPP2 […] extracted from HEK293F cells using p-Nph-5'-TMP as substrate by absorbance based analysis; format: cell-free

Structure (SMILES) | IC50 [1] [nM] | IC50 (Autotaxin) [nM]
COc1ccc2c(-c3ccc(CNS(N)(=O)=O)cc3)ccnc2c1 | 1270 | > 10000
COc1cccc(F)c1-c1nc(C(=O)Nc2cc(F)ccc2N2CCC(NS(N)(=O)=O)CC2)cn2ccnc12 | 2520 | > 10000

From ChEMBL document CHEMBL5614463, “Discovery of Imidazo[1,2-a]pyrazine Derivatives as Potent ENPP1 Inhibitors” (J Med Chem, 2024)
